12 molecules from US20230106032A1, “IMIDAZOTRIAZINES ACTING ON CANCER VIA INHIBITION OF CDK12” (Bayer Aktiengesellschaft, priority 2020, published 2023) can be followed below.

Experiment [1] has as its system CAL-120 human breast adenocarcinoma cells. Description: Proliferation assay CAL-120 (crystal violet). The experiment is classed as cell-based. The note with it: 96 h, CAL-120 cells, 4 days, read-out: Prolif-CAL-120_ IC50-[mol/l] (median). The procedure: Human tumour cells were originally obtained from the American Type Culture Collection (ATCC), or from the Deutsche Sammlung von Mikroorganismen und Zellkulturen (DSMZ, German Collection of Microorganisms and Cell Cultures). Cultivated tumour cells (CAL-120, human breast adenocarcinoma cells, DSMZ ACC-459; MDA-MB-231, human breast cancer cells, ATCC HTB-26) were plated at a density of 4,000 cells/well in a 96-well multititer plate in 200 microL of their respective growth medium supplemented 10% fetal calf serum. After 24 hours, the cells of one plate (zero-point plate) were stained with crystal violet (see below), while the medium of the other plates was supplemented with the test substances in various concentrations (0 micromol/L, as well as in the range of 0.01-10 micromol/L; the final concentration of the solvent dimethyl sulfoxide was adjusted to 0.1%) using a Tecan HP D300 Digital Dispenser. The cells were incubated for 4 days in the presence of test substances. Cell proliferation was determined by staining the cells with crystal violet: the cells were fixed by adding 20 microL/measuring point of an 11% glutaric aldehyde solution for 15 minutes at room temperature. After three washing cycles of the fixed cells with water, the plates were dried at room temperature. The cells were stained by adding 100 microL/measuring point of a 0.1% crystal violet solution (pH 3.0). After three washing cycles of the stained cells with water, the plates were dried at room temperature. The dye was dissolved by adding 100 microL/measuring point of a 10% acetic acid solution. The extinction was determined by photometry at a wavelength of 595 nm. The change of cell number, in percent, was calculated by normalization of the measured values to the extinction values of the zero-point plate (=0%) and the extinction of the untreated (0 μM) cells (=100%). The IC50 values (inhibitory concentration at 50% of maximal effect) were determined by means of a 4 parameter fit.

The subject of experiment [2] is BRCA1 mRNA expression in MDA-MB-231 cells. As to the kind of experiment: qRT-PCR assay: inhibition of BRCA1 mRNA expression in MDA-MB-231 cells. The experiment is classed as cell-based. The conditions noted are these: Homo sapiens, 24 h exposure, normalised to GAPDH, read-out: RTqPCR-MDA-MB-231 IC50 [mol/l] BRCA1 (median). The procedure: Tissue cultured human MDA-MB-231 human breast cancer cells were plated in 500 microL per well at 200,000 cells/well in a 24 well microtiter plate. After 24 h, the cells were exposed continuously for 24 h to test substances (substances were added with Tecan HP D300 Dispenser). RNA was prepared using Qiagen RNeasy MiniKit (#74106), RNA was quantified using a NanoDrop Equipment, and 600 nano gamms of RNA was converted to cDNA using a SuperScript VILO kit (Thermofisher #11755050) followed by qPCR amplification. BRCA1 and ATR gene expression was measured by RT-qPCR and normalised to GAPDH housekeeping gene expression. qPCR primer sets have been purchased from Thermo Fisher Scientific/Applied Biosystems: BRCA1, #Hs 01556193; ATR, #Hs 00992123; GAPDH, #Hs 03929097.
Background: Quantitative PCR measures a nucleic acid by following its amplification.

In experiment [3] the test system is CYCLIN K. As to the kind of experiment: CYCLIN K nuclear protein level: immunofluorescence/high content analysis in CAL-120 cells. The experiment is classed as cell-based, human. The note with it: 24 h, nuclear CCNK staining, read-out: CYCLIN K degradation IF, DC50-[mol/l] (median). The procedure:
In the context of the present invention, the term “DC50 Cyclin K” refers to the DC50 values obtained according to the assay described in this section (7) herein below, i.e. the DC50 values for the degradation of Cyclin K.
(§1) CAL-120 human breast cancer cells (DSMZ ACC 459) are seeded in 1536-well microtiter plates (800 cells per well) containing 50 nanoL of compounds in Dose-Response. Control wells received DMSO or Reference Example 1. Plates are then incubated for 24 h at 37° C. in an humidified incubator and fixed with 4% PFA for 10 min. Then immunofluorescence (IF) against CYCLIN K (ThermoFisher Scientific CCNK Antibody #PA5-85020, rabbit, 1:200 dilution) is performed using standard IF protocols. Cells are then stained with Hoechst 33342 (Life Technologies, H-1399, 0.1 microg/ml) and imaged on an automated confocal microscopy system (e.g. Perkin Elmer Opera Phenix). Nuclear and cytoplasmic intensity as well as the nuclear/cytoplasmic intensity ratio is determined by automated image analysis using custom generated scripts (MetaXpress). Data is then transferred to Genedata Screener software, normalized to DMSO and control and DC50 values (degrading concentration to achieve 50% reduction of nuclear CCNK staining intensity relative to controls) are reported.

The target in experiment [4] is T1, CDK12 (Homo sapiens, UniProt Q9NYV4).
T1 construct: endogenous in cells; host or cells: CAL-120 human breast cancer cells (DSMZ ACC 459)
T1 sequence (Q9NYV4 whole entry): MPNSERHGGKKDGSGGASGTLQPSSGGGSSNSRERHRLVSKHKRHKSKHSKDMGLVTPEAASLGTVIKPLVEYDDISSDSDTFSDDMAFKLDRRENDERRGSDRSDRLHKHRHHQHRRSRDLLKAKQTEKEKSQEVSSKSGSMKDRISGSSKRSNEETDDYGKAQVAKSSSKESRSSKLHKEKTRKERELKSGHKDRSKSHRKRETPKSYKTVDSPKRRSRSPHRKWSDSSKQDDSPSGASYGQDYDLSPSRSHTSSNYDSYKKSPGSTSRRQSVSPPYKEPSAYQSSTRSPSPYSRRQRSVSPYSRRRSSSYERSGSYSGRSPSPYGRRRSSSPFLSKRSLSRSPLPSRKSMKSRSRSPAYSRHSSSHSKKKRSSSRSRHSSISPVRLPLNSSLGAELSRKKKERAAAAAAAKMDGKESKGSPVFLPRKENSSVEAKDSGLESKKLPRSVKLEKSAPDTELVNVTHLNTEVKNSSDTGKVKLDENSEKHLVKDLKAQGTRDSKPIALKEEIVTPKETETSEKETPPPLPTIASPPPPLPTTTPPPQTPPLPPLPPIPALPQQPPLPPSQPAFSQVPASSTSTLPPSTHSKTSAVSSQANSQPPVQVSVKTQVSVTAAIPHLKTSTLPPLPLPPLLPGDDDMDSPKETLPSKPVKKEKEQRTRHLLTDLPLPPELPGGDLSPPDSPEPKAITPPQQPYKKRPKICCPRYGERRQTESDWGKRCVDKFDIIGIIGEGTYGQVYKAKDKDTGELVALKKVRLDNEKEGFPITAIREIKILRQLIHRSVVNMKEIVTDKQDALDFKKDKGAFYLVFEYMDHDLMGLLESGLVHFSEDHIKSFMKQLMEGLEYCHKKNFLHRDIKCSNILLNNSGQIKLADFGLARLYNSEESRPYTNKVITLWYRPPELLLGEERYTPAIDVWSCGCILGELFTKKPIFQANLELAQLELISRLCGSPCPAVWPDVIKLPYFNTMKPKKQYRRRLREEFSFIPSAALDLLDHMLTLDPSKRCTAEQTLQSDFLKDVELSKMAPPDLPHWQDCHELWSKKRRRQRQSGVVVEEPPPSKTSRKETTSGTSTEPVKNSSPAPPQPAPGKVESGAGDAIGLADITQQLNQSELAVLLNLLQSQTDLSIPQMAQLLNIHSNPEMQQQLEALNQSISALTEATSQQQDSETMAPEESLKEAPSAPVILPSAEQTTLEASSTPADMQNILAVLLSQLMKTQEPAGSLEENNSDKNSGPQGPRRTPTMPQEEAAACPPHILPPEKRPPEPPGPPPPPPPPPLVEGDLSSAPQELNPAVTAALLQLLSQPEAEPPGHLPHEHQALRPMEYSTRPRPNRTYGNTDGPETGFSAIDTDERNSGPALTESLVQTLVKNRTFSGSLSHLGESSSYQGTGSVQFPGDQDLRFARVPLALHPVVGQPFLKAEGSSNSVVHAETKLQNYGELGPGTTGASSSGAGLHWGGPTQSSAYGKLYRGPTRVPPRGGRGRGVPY
T1 sequence (O75909 whole entry partner): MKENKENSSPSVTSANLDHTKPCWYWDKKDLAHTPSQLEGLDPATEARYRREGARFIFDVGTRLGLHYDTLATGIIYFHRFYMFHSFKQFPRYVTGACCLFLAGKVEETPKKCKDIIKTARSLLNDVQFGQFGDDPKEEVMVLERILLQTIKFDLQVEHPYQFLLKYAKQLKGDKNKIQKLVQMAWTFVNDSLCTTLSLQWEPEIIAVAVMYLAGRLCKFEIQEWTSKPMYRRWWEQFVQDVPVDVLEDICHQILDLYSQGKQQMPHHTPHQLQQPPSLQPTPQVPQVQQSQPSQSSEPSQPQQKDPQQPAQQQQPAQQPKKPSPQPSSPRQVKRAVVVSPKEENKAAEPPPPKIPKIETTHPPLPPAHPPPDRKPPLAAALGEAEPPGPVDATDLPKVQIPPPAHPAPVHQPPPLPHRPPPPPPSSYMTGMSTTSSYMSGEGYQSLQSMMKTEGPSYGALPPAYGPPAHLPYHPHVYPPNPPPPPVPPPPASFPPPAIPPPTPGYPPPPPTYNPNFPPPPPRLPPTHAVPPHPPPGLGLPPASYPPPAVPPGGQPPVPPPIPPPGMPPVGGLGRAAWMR
Description: CDK12 nuclear protein level: immunofluorescence/high content analysis in CAL-120 cells. The experiment is classed as cell-based. The conditions noted are these: for DC50: CAL-120 cells, 24 h, nuclear CDK12 staining, read-out: CDK12 degradation IF DC50-[mol/l] (median); for (IC50 CDK12 high ATP) to (Degradation DC50 CDK12) ratio: IC50 CDK12 hATP (Table 2) divided by DC50 CDK12 IF (Table 8). The procedure:
In the context of the present invention, the term “DC50 CDK12” refers to the DC50 values obtained according to the assay described in this section (6) herein below, i.e. the DC50 values for the degradation of CDK12.
as §1, with “CDK12 (CellSignalling CDK12” for “CYCLIN K (ThermoFisher Scientific CCNK”, “#11973,” for “#PA5-85020,”, “1:100” for “1:200”, “CDK12” for “CCNK”

Turning to `C[C@@H]1CN(c2nc(NCc3nc4c(F)c(F)ccc4[nH]3)c3ncc(Br)n3n2)C[C@H](C)N1` [Example 11, 7-bromo-N-[(4,5-difluoro-1H-benzimidazol-2-yl)methyl]-2-[rel-(3R,5S)-3,5-dimethylpiperazin-1-yl]imidazo[2,1-f][1,2,4]triazin-4-amine], the IC50 in experiment [1] was determined as 0.381 nM; in experiment [2], 0.396 nM. Moreover, the results for the DC50 in experiment [3] and in experiment [4] were 0.0525 nM and 0.111 nM, respectively. The “(IC50 CDK12 high ATP) to (Degradation DC50 CDK12) ratio” value in experiment [4] stood at 5221.
The like results for `COc1cccc2[nH]c(CNc3nc(N4CCOCC4)nn4c(Br)cnc34)nc12` [Example 13, 7-bromo-N-[(4-methoxy-1H-benzimidazol-2-yl)methyl]-2-(morpholin-4-yl)imidazo[2,1-f][1,2,4]triazin-4-amine] were, in that order, 12.3 nM, 8.06 nM, 1.57 nM, 1.79 nM and 742.
The like results for `COc1cccc2[nH]c(CNc3nc(N4C[C@@H](C)N[C@@H](C)C4)nn4c(Br)cnc34)nc12` [Example 14, 7-bromo-2-[rel-(3R,5S)-3,5-dimethylpiperazin-1-yl]-N-[(4-methoxy-1H-benzimidazol-2-yl)methyl]imidazo[2,1-f][1,2,4]triazin-4-amine] were, in that order, 2.33 nM, 1.47 nM, 0.225 nM, 0.495 nM and 4066.
`COc1cccc2[nH]c(CNc3nc(N4CCNCC4)nn4c(Br)cnc34)nc12` [Example 15, 7-bromo-N-[(4-methoxy-1H-benzimidazol-2-yl)methyl]-2-(piperazin-1-yl)imidazo[2,1-f][1,2,4]triazin-4-amine]: the figures for the IC50 in experiment [1] and in experiment [2] were 3.05 nM and 2.36 nM, respectively. Moreover, the values for the DC50 in experiment [3] and in experiment [4] were 1.41 nM and 1.16 nM, respectively. Also, the “(IC50 CDK12 high ATP) to (Degradation DC50 CDK12) ratio” value in experiment [4] is on record as 1790.
On to `COc1cccc2[nH]c(CNc3nc(N4CCN(C)CC4)nn4c(Br)cnc34)nc12.O=CO` [Example 16, 7-bromo-N-[(4-methoxy-1H-benzimidazol-2-yl)methyl]-2-(4-methylpiperazin-1-yl)imidazo[2,1-f][1,2,4]triazin-4-amine Formate (1/1)], for which the IC50 in experiment [1] amounted to 5.89 nM; in experiment [2] it was 5.59 nM. Besides, the DC50 in experiment [3] was 0.954 nM; in experiment [4] it was 1.32 nM. The “(IC50 CDK12 high ATP) to (Degradation DC50 CDK12) ratio” value in experiment [4] is given as 4779.
`OC[C@@H]1CCCCN1c1nc(NCc2nc3ccccc3[nH]2)c2ncc(Br)n2n1` [Example 17, [(2S)-1-(4-{[(1H-benzimidazol-2-yl)methyl]amino}-7-bromoimidazo[2,1-f][1,2,4]triazin-2-yl)piperidin-2-yl]methanol]: the IC50 in experiment [1] amounted to 19.3 nM; in experiment [2], 15.7 nM. Besides, the figures for the DC50 in experiment [3] and in experiment [4] were 3.94 nM and 7.62 nM, respectively. The “(IC50 CDK12 high ATP) to (Degradation DC50 CDK12) ratio” value in experiment [4] worked out at 15.
`C[C@@H]1CN(c2nc(NCc3nc4c(F)cccc4[nH]3)c3ncc(Br)n3n2)C[C@H](C)N1` [Example 18, 7-bromo-2-[rel-(3R,5S)-3,5-dimethylpiperazin-1-yl]-N-[(4-fluoro-1H-benzimidazol-2-yl)methyl]imidazo[2,1-f][1,2,4]triazin-4-amine]: the IC50 in experiment [1] amounted to 2.08 nM; in experiment [2], 1.98 nM. Further, the DC50 in experiment [3] came out at 0.505 nM; in experiment [4], 0.631 nM. For the same molecule, the “(IC50 CDK12 high ATP) to (Degradation DC50 CDK12) ratio” value in experiment [4] is on record as 2854.
In the case of `C[C@@H]1CN(c2nc(NCc3nc4cc(F)ccc4[nH]3)c3ncc(Br)n3n2)C[C@H](C)N1` [Example 19, 7-bromo-2-[rel-(3R,5S)-3,5-dimethylpiperazin-1-yl]-N-[(5-fluoro-1H-benzimidazol-2-yl)methyl]imidazo[2,1-f][1,2,4]triazin-4-amine], the IC50 in experiment [1] stood at 1.14 nM; in experiment [2] it was 0.886 nM. For the same molecule, the values for the DC50 in experiment [3] and in experiment [4] were 0.0931 nM and 0.513 nM, respectively. Further, the “(IC50 CDK12 high ATP) to (Degradation DC50 CDK12) ratio” value in experiment [4] was found to be 12546.
Take `Fc1ccc2[nH]c(CNc3nc(N4CCOCC4)nn4c(Br)cnc34)nc2c1` [Example 20, 7-bromo-N-[(5-fluoro-1H-benzimidazol-2-yl)methyl]-2-(morpholin-4-yl)imidazo[2,1-f][1,2,4]triazin-4-amine]: the IC50 in experiment [1] was 10.7 nM; in experiment [2], 3.54 nM. Also, the values for the DC50 in experiment [3] and in experiment [4] were 0.0659 nM and 0.842 nM, respectively. Also, the “(IC50 CDK12 high ATP) to (Degradation DC50 CDK12) ratio” value in experiment [4] is 4106.
Take `CN1CCN(c2nc(NCc3nc4cc(F)ccc4[nH]3)c3ncc(Br)n3n2)CC1` [Example 21, 7-bromo-N-[(5-fluoro-1H-benzimidazol-2-yl)methyl]-2-(4-methylpiperazin-1-yl)imidazo[2,1-f][1,2,4]triazin-4-amine]: the IC50 in experiment [1] is 4.82 nM; in experiment [2] it was 3.11 nM. The DC50 in experiment [3] amounted to 0.227 nM; in experiment [4], 2.78 nM. In experiment [4], the “(IC50 CDK12 high ATP) to (Degradation DC50 CDK12) ratio” value was 5916.
For the molecule `Fc1cccc2[nH]c(CNc3nc(N4CCNCC4)nn4c(Br)cnc34)nc12` [Example 22, 7-bromo-N-[(4-fluoro-1H-benzimidazol-2-yl)methyl]-2-(piperazin-1-yl)imidazo[2,1-f][1,2,4]triazin-4-amine], the IC50 in experiment [1] was 3.06 nM; in experiment [2], 0.884 nM. For the same molecule, the DC50 was determined as 0.589 nM in experiment [3] and 1.96 nM in experiment [4]. Moreover, the “(IC50 CDK12 high ATP) to (Degradation DC50 CDK12) ratio” value in experiment [4] worked out at 1305.
In the same order, the values of `CN1CCN(c2nc(NCc3nc4c(F)cccc4[nH]3)c3ncc(Br)n3n2)CC1` [Example 23, 7-bromo-N-[(4-fluoro-1H-benzimidazol-2-yl)methyl]-2-(4-methylpiperazin-1-yl)imidazo[2,1-f][1,2,4]triazin-4-amine] are 14.2 nM, 3.12 nM, 0.863 nM, 4.04 nM and 2680.
